ChEMBL document CHEMBL1949576, “Praziquantel derivatives exhibit activity against both juvenile and adult Schistosoma japonicum” (2012)

Experiments:
Type in all cases: functional
Schistosoma japonicum [1] = experiment: Antischistosomal activity against adult Schistosoma japonicum assessed as worm survival at 50 uM after 24 hrs relative to control
Schistosoma japonicum [2] = experiment: Antischistosomal activity against adult Schistosoma japonicum assessed as worm survival at 50 uM after 72 hrs relative to control
Schistosoma japonicum [3] = experiment: Antischistosomal activity against adult Schistosoma japonicum assessed as worm survival at 50 uM after 48 hrs relative to control
Schistosoma japonicum [4] = experiment: Antischistosomal activity against adult Schistosoma japonicum assessed as worm survival at 80 uM after 24 hrs relative to control
Schistosoma japonicum [5] = experiment: Antischistosomal activity against adult Schistosoma japonicum assessed as worm survival at 60 uM after 24 hrs relative to control
Schistosoma japonicum [6] = experiment: Antischistosomal activity against adult Schistosoma japonicum assessed as worm survival at 60 uM after 48 hrs relative to control
Schistosoma japonicum [7] = experiment: Antischistosomal activity against adult Schistosoma japonicum assessed as worm survival at 70 uM after 24 hrs relative to control
Schistosoma japonicum [8] = experiment: Antischistosomal activity against adult Schistosoma japonicum assessed as worm survival at 80 uM after 48 hrs relative to control
Schistosoma japonicum [9] = experiment: Antischistosomal activity against adult Schistosoma japonicum assessed as worm survival at 80 uM after 72 hrs relative to control
Schistosoma japonicum [10] = experiment: Antischistosomal activity against adult Schistosoma japonicum assessed as worm survival at 70 uM after 72 hrs relative to control
Schistosoma japonicum [11] = experiment: Antischistosomal activity against adult Schistosoma japonicum assessed as worm survival at 60 uM after 72 hrs relative to control
Schistosoma japonicum [12] = experiment: Antischistosomal activity against adult Schistosoma japonicum assessed as worm survival at 70 uM after 48 hrs relative to control
Schistosoma japonicum [13] = experiment: Antischistosomal activity against adult Schistosoma japonicum infected in mouse assessed as total worm reduction at 200 mg/kg, po administered 21 days after infection relative to control; parameters: scale not given: the % may be the effect or the level left
Schistosoma japonicum [14] = experiment: Antischistosomal activity against juvenile Schistosoma japonicum assessed as worm survival at 15 uM after 48 hrs relative to control
Schistosoma japonicum [15] = experiment: Antischistosomal activity against juvenile Schistosoma japonicum assessed as worm survival at 10 uM after 72 hrs relative to control
Schistosoma japonicum [16] = experiment: Antischistosomal activity against juvenile Schistosoma japonicum assessed as worm survival at 10 uM after 24 hrs relative to control
Schistosoma japonicum [17] = experiment: Antischistosomal activity against juvenile Schistosoma japonicum assessed as worm survival at 10 uM after 48 hrs relative to control
Schistosoma japonicum [18] = experiment: Antischistosomal activity against juvenile Schistosoma japonicum assessed as worm survival at 15 uM after 24 hrs relative to control
Schistosoma japonicum [19] = experiment: Antischistosomal activity against juvenile Schistosoma japonicum assessed as worm survival at 5 uM after 72 hrs relative to control
Schistosoma japonicum [20] = experiment: Antischistosomal activity against juvenile Schistosoma japonicum assessed as worm survival at 5 uM after 24 hrs relative to control
Schistosoma japonicum [21] = experiment: Antischistosomal activity against adult Schistosoma japonicum assessed as worm survival at 10 uM after 48 hrs relative to control
Schistosoma japonicum [22] = experiment: Antischistosomal activity against juvenile Schistosoma japonicum assessed as worm survival at 15 uM after 72 hrs relative to control
Schistosoma japonicum [23] = experiment: Antischistosomal activity against adult Schistosoma japonicum assessed as worm survival at 5 uM after 48 hrs relative to control
Schistosoma japonicum [24] = experiment: Antischistosomal activity against adult Schistosoma japonicum assessed as worm survival at 25 uM after 48 hrs relative to control
Schistosoma japonicum [25] = experiment: Antischistosomal activity against adult Schistosoma japonicum assessed as worm survival at 25 uM after 72 hrs relative to control
Schistosoma japonicum [26] = experiment: Antischistosomal activity against juvenile Schistosoma japonicum assessed as worm survival at 50 uM after 24 hrs relative to control
Schistosoma japonicum [27] = experiment: Antischistosomal activity against adult Schistosoma japonicum assessed as worm survival at 10 uM after 72 hrs relative to control
Schistosoma japonicum [28] = experiment: Antischistosomal activity against adult Schistosoma japonicum assessed as worm survival at 5 uM after 72 hrs relative to control
Schistosoma japonicum [29] = experiment: Antischistosomal activity against juvenile Schistosoma japonicum assessed as worm survival at 5 uM after 48 hrs relative to control
Schistosoma japonicum [30] = experiment: Antischistosomal activity against juvenile Schistosoma japonicum assessed as worm survival at 50 uM after 48 hrs relative to control
Schistosoma japonicum [31] = experiment: Antischistosomal activity against adult Schistosoma japonicum assessed as worm survival at 5 uM after 24 hrs relative to control
Schistosoma japonicum [32] = experiment: Antischistosomal activity against adult Schistosoma japonicum assessed as worm survival at 25 uM after 24 hrs relative to control
Schistosoma japonicum [33] = experiment: Antischistosomal activity against juvenile Schistosoma japonicum assessed as worm survival at 50 uM after 72 hrs relative to control
Schistosoma japonicum [34] = experiment: Antischistosomal activity against juvenile Schistosoma japonicum infected in mouse assessed as total worm reduction at 200 mg/kg, po administered 14 days after infection relative to control; parameters: scale not given: the % may be the effect or the level left
Schistosoma japonicum [35] = experiment: Antischistosomal activity against adult Schistosoma japonicum assessed as worm survival at 10 uM after 24 hrs relative to control
Schistosoma japonicum [36] = experiment: Antischistosomal activity against adult Schistosoma japonicum assessed as worm survival at 15 uM after 48 hrs relative to control
Schistosoma japonicum [37] = experiment: Antischistosomal activity against adult Schistosoma japonicum assessed as worm survival at 20 uM after 72 hrs relative to control
Schistosoma japonicum [38] = experiment: Antischistosomal activity against adult Schistosoma japonicum assessed as worm survival at 15 uM after 72 hrs relative to control
Schistosoma japonicum [39] = experiment: Antischistosomal activity against adult Schistosoma japonicum assessed as worm survival at 20 uM after 48 hrs relative to control
Schistosoma japonicum [40] = experiment: Antischistosomal activity against adult Schistosoma japonicum assessed as worm survival at 20 uM after 24 hrs relative to control
Schistosoma japonicum [41] = experiment: Antischistosomal activity against adult Schistosoma japonicum assessed as worm survival at 15 uM after 24 hrs relative to control

SMILES | survival at 50 µM (Schistosoma japonicum [1]) [%] | survival at 50 µM (Schistosoma japonicum [2]) [%] | survival at 50 µM (Schistosoma japonicum [3]) [%] | Activity (Schistosoma japonicum [13]) [%] | survival at 15 µM (Schistosoma japonicum [14]) [%] | survival at 10 µM (Schistosoma japonicum [15]) [%] | survival at 10 µM (Schistosoma japonicum [16]) [%] | survival at 10 µM (Schistosoma japonicum [17]) [%] | survival at 15 µM (Schistosoma japonicum [18]) [%] | survival at 15 µM (Schistosoma japonicum [22]) [%] | survival at 25 µM (Schistosoma japonicum [24]) [%] | survival at 25 µM (Schistosoma japonicum [25]) [%] | survival at 50 µM (Schistosoma japonicum [26]) [%] | survival at 50 µM (Schistosoma japonicum [30]) [%] | survival at 25 µM (Schistosoma japonicum [32]) [%] | survival at 50 µM (Schistosoma japonicum [33]) [%] | Activity (Schistosoma japonicum [34]) [%] | also measured
O=C(Nc1ccc2c(c1)C1CN(C(=O)C3CCCCC3)CC(=O)N1CC2)C1CCC2(CC1)OOC1(O2)C2CC3CC(C2)CC1C3 (configuration not stated) | 100 | 100 | 100 |  |  |  |  |  |  |  |  |  |  |  |  |  |  | 
O=C(Oc1ccc2c(c1)C1CN(C(=O)C3CCCCC3)CC(=O)N1CC2)C1CCC2(CC1)OOC1(O2)C2CC3CC(C2)CC1C3 (configuration not stated) | 40 | 40 | 40 |  |  |  |  |  |  |  |  |  |  |  |  |  |  | survival at 80 µM (Schistosoma japonicum [4]): 0%; survival at 60 µM (Schistosoma japonicum [5]): 40%; survival at 60 µM (Schistosoma japonicum [6]): 40%; survival at 70 µM (Schistosoma japonicum [7]): 20%; survival at 80 µM (Schistosoma japonicum [8]): 0%; survival at 80 µM (Schistosoma japonicum [9]): 0%; survival at 70 µM (Schistosoma japonicum [10]): 20%; survival at 60 µM (Schistosoma japonicum [11]): 40%; survival at 70 µM (Schistosoma japonicum [12]): 40%
C[C@H]1[C@@H](CC(=O)Nc2ccc3c(c2)C2CN(C(=O)C4CCCCC4)CC(=O)N2CC3)O[C@@H]2O[C@@]3(C)CC[C@H]4[C@H](C)CC[C@@H]1[C@@]24OO3 (some centres not stated) | 20 | 100 | 80 |  |  |  |  |  |  |  |  |  |  |  |  |  |  | 
O=C(C1CCCCC1)N1CC(=O)N2CCc3ccc(O)cc3C2C1 (configuration not stated) | 0 | 0 | 0 | 40.2 | 0 | 54.5 | 0 | 45.5 | 0 | 0 | 0 | 0 | 0 | 0 | 0 | 0 | 16.1 | survival at 5 µM (Schistosoma japonicum [19]): 27.3%; survival at 5 µM (Schistosoma japonicum [20]): 0%; survival at 10 µM (Schistosoma japonicum [21]): 20%; survival at 5 µM (Schistosoma japonicum [23]): 80%; survival at 10 µM (Schistosoma japonicum [27]): 20%; survival at 5 µM (Schistosoma japonicum [28]): 80%; survival at 5 µM (Schistosoma japonicum [29]): 27.3%; survival at 5 µM (Schistosoma japonicum [31]): 60%; survival at 10 µM (Schistosoma japonicum [35]): 0%
C[C@H]1[C@@H](OC(=O)CCC(=O)Oc2ccc3c(c2)C2CN(C(=O)C4CCCCC4)CC(=O)N2CC3)O[C@@H]2O[C@@]3(C)CC[C@H]4[C@H](C)CC[C@@H]1[C@@]24OO3 (some centres not stated) | 0 | 0 | 0 | 56.2 | 0 | 33.3 | 16.7 | 33.3 | 0 | 0 | 0 | 0 | 0 | 0 | 0 | 0 | 70.3 | survival at 15 µM (Schistosoma japonicum [36]): 0%; survival at 20 µM (Schistosoma japonicum [37]): 0%; survival at 15 µM (Schistosoma japonicum [38]): 0%; survival at 20 µM (Schistosoma japonicum [39]): 0%; survival at 20 µM (Schistosoma japonicum [40]): 0%; survival at 15 µM (Schistosoma japonicum [41]): 0%
